Values of other authors as cited in patent US20080004343A1, “Stable polymorphs of (E)-N,N-diethyl-2-cyano-3-(3,4-dihydroxy-5-nitrophenyl)acrylamide” (Wockhardt Limited, priority 2006, published 2008).

Row | stability under the influence of heat or acids | Compound | isomerization to polymorphic form A on standing (standing at room temperature)
1 | unstable | CCN(CC)C(=O)C(C#N)=Cc1cc(O)c(O)c([N+](=O)[O-])c1 [(Z)-isomer, N,N-diethyl-2-cyano-3-(3,4-dihydroxy-5-nitrophenyl)acrylamide] | –
2 | unstable | CCN(CC)C(=O)/C(C#N)=C/c1cc(O)c(O)c([N+](=O)[O-])c1 [polymorphic form B, (E)-N,N-diethyl-2-cyano-3-(3,4-dihydroxy-5-nitrophenyl)acrylamide] | isomerizes slowly to the polymorphic form A
